What was measured:
full length human TREX1 = target: T1, full length human TREX1 (Homo sapiens, UniProt Q9NSU2); experiment: hTREX1 Biochemical Assay (fluorescence, dsDNA substrate degradation); conditions: biochemical, read-out: hTREX1 IC50
T1 construct: N-terminally His-Tev tagged full length human TREX1; made in house; host or cells: E. coli
T1 sequence (Q9NSU2 1-314): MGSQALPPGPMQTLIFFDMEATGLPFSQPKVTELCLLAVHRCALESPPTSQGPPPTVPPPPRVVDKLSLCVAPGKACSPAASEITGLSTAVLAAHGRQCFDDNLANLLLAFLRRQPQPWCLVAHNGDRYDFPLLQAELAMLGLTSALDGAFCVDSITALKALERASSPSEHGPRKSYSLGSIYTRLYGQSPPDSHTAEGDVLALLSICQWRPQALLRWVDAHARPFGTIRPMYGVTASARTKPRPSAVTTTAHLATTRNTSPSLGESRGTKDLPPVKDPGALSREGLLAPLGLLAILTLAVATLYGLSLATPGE
Description: (§1) Degradation of the dsDNA liberates free fluorophore to produce a fluorescent signal. Specifically, 7.5 μL of N-terminally His-Tev tagged full length human TREX1 (expressed in E. coli and purified in house) in reaction buffer (50 mM Tris, 150 mM NaCl, 2 mM DTT, 0.1 mg/mL BSA, 0.01% (w/v) Tween-20, 5 mM MgCl2, pH 7.4) was added to a 384-well Black ProxiPlate Plus (PerkinElmer) which already contained compound (150 nL) at varying concentrations as a 10 point dose-response in DMSO. The plate was incubated at 25° C. for 4 hours. Reactions were initiated by adding 7.5 μL of dsDNA substrate (Strand A: 5′ TEX615/GCT AGG CAG 3′; Strand B: 5′ CTG CCT AGC/IAbRQSp (Integrated DNA Technologies)) in reaction buffer. Final concentrations were 4 pM TREX1, 60 nM dsDNA substrate in reaction buffer with 1.0% DMSO (v/v). After 18 hours at 25° C., reactions were quenched by the addition of 2 μL of 500 mM EDTA.

full length mouse TREX1 = target: T2, full length mouse TREX1 (Mus musculus, UniProt Q91XB0); experiment: mTREX1 Biochemical Assay (fluorescence, dsDNA substrate degradation); conditions: biochemical, read-out: mTREX1 IC50
T2 construct: N-terminally His-Tev tagged full length mouse TREX1; made in house; host or cells: E. coli
T2 sequence (Q91XB0 1-314): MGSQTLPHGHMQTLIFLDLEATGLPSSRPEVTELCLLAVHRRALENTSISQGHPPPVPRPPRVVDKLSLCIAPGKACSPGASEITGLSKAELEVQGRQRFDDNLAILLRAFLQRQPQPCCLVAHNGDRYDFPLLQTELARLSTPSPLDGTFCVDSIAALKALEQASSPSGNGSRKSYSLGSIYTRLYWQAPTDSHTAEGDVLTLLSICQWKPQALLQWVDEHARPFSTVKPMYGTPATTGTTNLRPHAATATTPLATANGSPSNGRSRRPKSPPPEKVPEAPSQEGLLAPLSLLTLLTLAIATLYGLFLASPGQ
Description: as §1, with “length mouse” for “length human”, “were 6” for “were 4”

| Compound | IC50 (full length human TREX1) [nM] | IC50 (full length mouse TREX1) [nM] |
| --- | --- | --- |
| COCCCn1cc(C(c2ccccc2C#N)C(C)c2nc(C(=O)Nc3cnoc3)c(O)c(=O)n2C)cn1 (single isomer, unassigned) [Example 24 D1E2] | > 10 | > 10 |
| COCCCn1cc(C(c2ccccc2C#N)C(C)c2nc(C(=O)Nc3cnoc3)c(O)c(=O)n2C)cn1 (single isomer, unassigned) [Example 24 D2E1] | > 10 | > 10 |
| COCCCn1cc(C(c2ccccc2C#N)C(C)c2nc(C(=O)Nc3cnoc3)c(O)c(=O)n2C)cn1 (single isomer, unassigned) [Example 24 D2E2] | > 10 | > 10 |
| CC(c1nc(C(=O)Nc2cnoc2)c(O)c(=O)n1C)C(c1cnn(C)c1)c1cc(F)c(F)cc1C#N (single isomer, unassigned) [Example 25 D1E2] | > 10 | > 10 |
| CC(c1nc(C(=O)Nc2cnoc2)c(O)c(=O)n1C)C(c1cnn(C)c1)c1cc(F)c(F)cc1C#N (single isomer, unassigned) [Example 25 D2E1] | > 10 | > 10 |
| CC(c1nc(C(=O)Nc2cnoc2)c(O)c(=O)n1C)C(c1cnn(C)c1)c1cc(F)c(F)cc1C#N (single isomer, unassigned) [Example 25 D2E2] | > 10 | > 10 |
| CC(c1nc(C(=O)Nc2cnoc2)c(O)c(=O)n1C)C(c1cnn(C)c1)c1cc(Cl)ccc1C#N (single isomer, unassigned) [Example 26 D1E1] | > 10 | > 10 |
| CC(c1nc(C(=O)Nc2cnoc2)c(O)c(=O)n1C)C(c1cnn(C)c1)c1cc(Cl)ccc1C#N (single isomer, unassigned) [Example 26 D2E2] | > 10 | > 10 |
| CC(c1nc(C(=O)Nc2cnoc2)c(O)c(=O)n1C)C(c1cnn(C)c1)c1ccc(Cl)cc1C#N (single isomer, unassigned) [Example 27 D2E1] | > 10 | > 10 |
| CC(c1nc(C(=O)Nc2cnoc2)c(O)c(=O)n1C)C(c1cnn(C)c1)c1ccc(Cl)cc1C#N (single isomer, unassigned) [Example 27 D2E2] | > 10 | > 10 |
| CC(c1nc(C(=O)Nc2cnoc2)c(O)c(=O)n1C)C(c1cnn(C)c1)c1cc(F)c(F)cc1Cl (single isomer, unassigned) [Example 28 D1E2] | > 10 | > 10 |
| CC(c1nc(C(=O)Nc2cnoc2)c(O)c(=O)n1C)C(c1cnn(C)c1)c1cc(F)c(F)cc1Cl (single isomer, unassigned) [Example 28 D2E1] | > 10 | > 10 |
| CC(c1nc(C(=O)Nc2cnoc2)c(O)c(=O)n1C)C(c1cnn(C)c1)c1cc(F)c(F)cc1Cl (single isomer, unassigned) [Example 28 D2E2] | > 10 | > 10 |
| CC(c1nc(C(=O)Nc2cnoc2)c(O)c(=O)n1C)C(c1cnn(C)c1)c1cc(C(F)(F)F)ccc1C#N (single isomer, unassigned) [Example 29 D1E2] | > 10 | > 10 |
| CC(c1nc(C(=O)Nc2cnoc2)c(O)c(=O)n1C)C(c1cnn(C)c1)c1cc(C(F)(F)F)ccc1C#N (single isomer, unassigned) [Example 29 D2E1] | > 10 | > 10 |
| CC(c1nc(C(=O)Nc2cnoc2)c(O)c(=O)n1C)C(c1cnn(C)c1)c1cc(C(F)(F)F)ccc1C#N (single isomer, unassigned) [Example 29 D2E2] | > 10 | > 10 |
| CC(c1nc(C(=O)Nc2cnoc2)c(O)c(=O)n1C)C(c1cnn(C)c1)c1ccc(C(F)(F)F)cc1C#N (single isomer, unassigned) [Example 30 D1E2] | > 10 | > 10 |

| Compound | IC50 (full length human TREX1) [nM] | IC50 (full length mouse TREX1) [nM] |
| --- | --- | --- |
| CC(c1nc(C(=O)Nc2cnoc2)c(O)c(=O)n1C)C(c1cnn(C)c1)c1ccc(C(F)(F)F)cc1C#N (single isomer, unassigned) [Example 30 D2E1] | > 10 | > 10 |
| CC(c1nc(C(=O)Nc2cnoc2)c(O)c(=O)n1C)C(c1cnn(C)c1)c1ccc(C(F)(F)F)cc1C#N (single isomer, unassigned) [Example 30 D2E2] | > 10 | > 10 |
| CC(c1nc(C(=O)Nc2cnoc2)c(O)c(=O)n1C)C(c1cnn(CCN2CCNCC2)c1)c1ccccc1C#N (single isomer, unassigned) [Example 31 D1E2] | > 10 | > 10 |
| CC(c1nc(C(=O)Nc2cnoc2)c(O)c(=O)n1C)C(c1cnn(CCN2CCNCC2)c1)c1ccccc1C#N (single isomer, unassigned) [Example 31 D2E1] | > 10 | > 10 |
| CC(c1nc(C(=O)Nc2cnoc2)c(O)c(=O)n1C)C(c1cnn(CCN2CCNCC2)c1)c1ccccc1C#N (single isomer, unassigned) [Example 31 D2E2] | > 10 | > 10 |
| CC(c1nc(C(=O)Nc2cnoc2)c(O)c(=O)n1C)C(c1cnn(CCN2CCN(C)CC2)c1)c1ccccc1C#N (single isomer, unassigned) [Example 32 D1E2] | 1 to 10 | > 10 |
| CC(c1nc(C(=O)Nc2cnoc2)c(O)c(=O)n1C)C(c1cnn(CCN2CCN(C)CC2)c1)c1ccccc1C#N (single isomer, unassigned) [Example 32 D2E2] | > 10 | > 10 |
| CC(c1nc(C(=O)Nc2cnoc2)c(O)c(=O)n1C)C(c1cnn(CCN(C)C)c1)c1ccccc1C#N (single isomer, unassigned) [Example 33 D1E2] | > 10 | > 10 |
| CC(c1nc(C(=O)Nc2cnoc2)c(O)c(=O)n1C)C(c1cnn(CCN(C)C)c1)c1ccccc1C#N (single isomer, unassigned) [Example 33 D2E1] | > 10 | > 10 |
| CC(c1nc(C(=O)Nc2cnoc2)c(O)c(=O)n1C)C(c1cnn(CCN(C)C)c1)c1ccccc1C#N (single isomer, unassigned) [Example 33 D2E2] | > 10 | > 10 |
| CC(c1nc(C(=O)Nc2cnoc2)c(O)c(=O)n1C)C(c1cnn(CCCN(C)C)c1)c1ccccc1C#N (single isomer, unassigned) [Example 34 D1E2] | > 10 | > 10 |
| CC(c1nc(C(=O)Nc2cnoc2)c(O)c(=O)n1C)C(c1cnn(CCCN(C)C)c1)c1ccccc1C#N (single isomer, unassigned) [Example 34 D2E2] | > 10 | > 10 |
| CC(c1nc(C(=O)Nc2cnoc2)c(O)c(=O)n1C)C(c1cnn(CCO)c1)c1ccccc1C#N (single isomer, unassigned) [Example 35 D1E2] | > 10 | > 10 |
| CC(c1nc(C(=O)Nc2cnoc2)c(O)c(=O)n1C)C(c1cnn(CCO)c1)c1ccccc1C#N (single isomer, unassigned) [Example 35 D2E1] | 1 to 10 | > 10 |
| CC(c1nc(C(=O)Nc2cnoc2)c(O)c(=O)n1C)C(c1cnn(CCO)c1)c1ccccc1C#N (single isomer, unassigned) [Example 35 D2E2] | > 10 | > 10 |
| CC(c1nc(C(=O)Nc2cnoc2)c(O)c(=O)n1C)C(c1cnn(CC(C)(C)O)c1)c1ccccc1C#N (single isomer, unassigned) [Example 36 D1E2] | > 10 | > 10 |
| CC(c1nc(C(=O)Nc2cnoc2)c(O)c(=O)n1C)C(c1cnn(CC(C)(C)O)c1)c1ccccc1C#N (single isomer, unassigned) [Example 36 D2E2] | > 10 | > 10 |

From patent publication US20240246946A1, “MODULATORS OF TREX1” (Constellation Pharmaceuticals, Inc., priority 2021, published 2024)
